In paper PMC5668240, “Fragment-based screening identifies novel targets for inhibitors of conjugative transfer of antimicrobial resistance by plasmid pKM101” (Scientific Reports, 2017):

Key:
[1] = tested on: conjugative transfer of plasmid pKM101; experiment: Conjugation assay, pKM101-carrying donor FM433 and plasmid-free recipient WL400; type: cell-based; details: 50 μM, 2.5% DMSO
Procedure: Quantitation of conjugative DNA transfer was performed as described previously. For analysis of the inhibition of conjugation by fragments or small molecules, the cells were cultivated on agar and in liquid media in the presence of 50 μM of the small molecules in the presence of 2.5% DMSO.

[2] = molecular target: T1, purified periplasmic domain of TraE (plasmid pKM101) (Escherichia coli, UniProt Q17U16); experiment: Binding to TraE by fluorescence quenching (intrinsic UV fluorescence); details: 20 °C, 20 mM HEPES, 50 mM NaCl, pH 7.4; single site saturation fit
Procedure: Protein overexpression and purification was performed as described previously. The TraE buffer was changed to 20 mM HEPES, 50 mM NaCl, pH 7.4. TraE protein concentrations were determined using the molar extinction coefficient at 280 nm of 25 900 M^−1 cm^−1.
Changes of the intrinsic UV fluorescence emission of TraE upon binding of fragments and small molecules were recorded at 20 °C with a Cary Eclipse Fluorometer (Varian) (λex 295 nm, λem 340 nm, 5 nm excitation and emission slit widths) in 20 mM HEPES, 50 mM NaCl, pH 7.4. The spectra were corrected for dilution effects and KD values were calculated from the ligand binding fluorescence data fitted to a single site saturation curve with constant background using the Grafit 6.0 software package.

[3] = molecular target: T1, purified periplasmic domain of TraE (plasmid pKM101); experiment: Differential scanning fluorimetry (DSF) thermal shift of TraE; type: binding; details: 5 mM fragment or small molecule, 5 μM protein; hit when ΔTm higher than 1 °C
Procedure: A library of 505 fragments was used in this study of which 186 were previously described[14] and the others are listed in Supplementary Table 3. DSF experiments were performed as described previously. DSF was conducted using 5 μM of protein, 10X concentration of SYPRO Orange (from 5000X stock solution, ThermoFisher) in 20 mM HEPES, 50 mM NaCl, pH 7.4 and 5% final concentration of DMSO. For fragment-based screening and molecule optimization, fragments or small molecules were added to final concentrations of 5 mM. SYPRO Orange fluorescence was monitored over 20–95 °C with a LightCycler® 480 instrument (Roche, USA). The LightCycler® 480 Software (Roche) was used to calculate the first derivate of the resulting melting curve, with the steepest point of the slope being the Tm. Fragments were considered to be hits when ΔTm was higher than 1 °C, which is two times higher than the standard deviation of the DMSO control.

[4] = tested on: purified periplasmic domain of TraE; experiment: In vitro DSS cross-linking assay of TraE dimerization; type: biochemical; details: 0–1.6 mM molecule, normalized to control without small molecules
Procedure: Chemical crosslinking with disuccinimidyl suberate (DSS, Pierce) was performed as described previously[13] and the formation of crosslinking products was quantified by SDS-PAGE and using the ImageLab Software 4.0 (Bio-Rad).

T1 sequence (Q17U16 entry or part of it): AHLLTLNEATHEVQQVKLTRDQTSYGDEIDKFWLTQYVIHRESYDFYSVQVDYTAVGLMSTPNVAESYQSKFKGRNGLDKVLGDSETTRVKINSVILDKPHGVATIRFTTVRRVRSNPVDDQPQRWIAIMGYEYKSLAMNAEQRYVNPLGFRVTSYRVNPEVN

Compound | Effect on conjugative transfer of pKM101 [1] | Kd [2] | Effect on thermal melting point of TraE (DSF) [3] | Effect on formation of DSS-dependent cross-linking products of TraE (dimerization) [4]
2-chloroisonicotinic acid [4H10] | no effect on conjugation | 32 ± 1.8 µM | – | –
O=C(O)c1ccco1 [1E6, 2-furoic acid] | no effect on conjugation | 23 ± 1.9 µM | – | –
O=C(O)c1cc(-n2cccc2)ccn1 [compound 105055, 4-(1H-pyrrol-1-yl)pyridine-2-carboxylic acid] | significantly reduce conjugative DNA transfer | 9.3 ± 0.4 µM | stabilized the protein | significantly inhibit cross-linking
O=C(O)c1ccnc(-c2ccco2)c1 [compound 239852, 2-(2-furyl)isonicotinic acid] | significantly reduce conjugative DNA transfer | 19.6 ± 1.2 µM | stabilized the protein | significantly inhibit cross-linking
